Measured values published in US20180213790A1, “COMPOSITIONS AND USES THEREOF FOR CONTROLLING ECTOPARASITES IN NON-HUMAN MAMMALS” (priority 2015, published 2018).
Where two headings read alike, the source gives them in different places.

Experiments:
Rhipicephalus sanguineus = test: in vitro coated-vial bioassay, activity against ticks; conditions: for mortality at 0.206 ppm / mortality at 0.617 ppm / mortality at 1.852 ppm / mortality at 5.556 ppm / mortality at 16.667 ppm / mortality at 50 ppm: Rhipicephalus sanguineus; for mortality at 0.206 ppm: D 0.000 ppm + F 0.206 ppm; for mortality at 0.617 ppm: D 0.000 ppm + F 0.617 ppm; for mortality at 1.852 ppm: D 0.000 ppm + F 1.852 ppm; for mortality at 5.556 ppm: D 0.000 ppm + F 5.556 ppm; for mortality at 16.667 ppm: D 0.000 ppm + F 16.667 ppm; for mortality at 50 ppm: D 0.000 ppm + F 50.000 ppm; for EC50 (ppm) Total amount of actives (ppm): total of dinotefuran and fipronil
Protocol: Tick susceptibility was assessed at 12, 24 and 48 hours post-exposure by evaluating mortality.

Ctenocephalides felis = conditions: for EC50 (ppm) Total amount of actives (ppm): total of dinotefuran and fipronil; for EC50 (ppm) Dinotefuran: amount of dinotefuran
Protocol: Insecticidal activity of dinotefuran, fipronil and dinotefuran/fipronil combinations at different ratios was evaluated using an in vitro coated-vial bioassay. Serial dilutions of test compounds, individually or in combination, were conducted with an acetone/triton solution+0.5% DMSO from a dinotefuran starting dose at 100 ppm and from a fipronil starting dose at 50 ppm. Vials were treated with dinotefuran, fipronil, dinotefuran/fipronil (tested at 6 ratios). Vials were capped and allowed to dry for at least 4 hours before the addition of 10 newly emerged (0-7 days old) unfed adult fleas (Ctenocephalides felis). Flea susceptibility was assessed at 6, 24 and 48 hours post-exposure by evaluating mortality. The EC50 and EC90 values were calculated based on Median-Effect Principle (Chu, 2006. Theoretical Basis, Experimental design, and Computerized Simulation of Synergism and Antagonism in drug Combination studies. Pharmacological reviews, 58(3):621-681) using COMPUSYN (version 1.0). EC50 and EC90 are defined as the amount of drugs, which causes respectively a 50% and 90% flea mortality. Combination indexes (CI) at EC50 and EC90 were calculated to characterize the interaction of each combination: synergism (CI<1), antagonism (CI>1) and additive effect (CI=1) and a combination index (CI) values were calculated at 48 hours of exposure to assess the potential for synergistic activity (Chou, Pharmacol. Rev. 2006, 58, 621-681; Chou, Drug combination studies and their synergy quantification using the Chou-Talalay method, Cancer. Res., 2010, 70: 440-446).

[1] = 12 H, read-out: Mortality (%) 12 H
[2] = 24 H, read-out: Mortality (%) 24 H
[3] = 48 H, read-out: Mortality (%) 48 H

Question: How did the mortality at 0.206 ppm (Rhipicephalus sanguineus; [1]) turn out when `N#Cc1nn(-c2c(Cl)cc(C(F)(F)F)cc2Cl)c(N)c1[S+]([O-])C(F)(F)F` (racemic) [D:F = 0:1, (RS)-5-amino-1-[2,6-dichloro-4-(trifluoromethyl)phenyl]-4-(trifluoromethylsulfinyl)-1H-pyrazole-3-carbonitrile] was run?
Answer: Its mortality at 0.206 ppm is 0%.

Question: And the mortality at 0.206 ppm (Rhipicephalus sanguineus; [2])?
Answer: The mortality at 0.206 ppm was 0%.

Question: And the mortality at 0.206 ppm (Rhipicephalus sanguineus; [3])?
Answer: The mortality at 0.206 ppm was 0%.

Question: And the mortality at 0.617 ppm (Rhipicephalus sanguineus; [1])?
Answer: Its mortality at 0.617 ppm is 0%.

Question: What about the mortality at 0.617 ppm (Rhipicephalus sanguineus; [2]) of the same compound?
Answer: Its mortality at 0.617 ppm is 0%.

Question: What about the mortality at 0.617 ppm (Rhipicephalus sanguineus; [3]) of the same compound?
Answer: The mortality at 0.617 ppm was 10%.

Question: What about the mortality at 1.852 ppm (Rhipicephalus sanguineus; [1]) of the same compound?
Answer: The mortality at 1.852 ppm was 0%.

Question: And the mortality at 1.852 ppm (Rhipicephalus sanguineus; [2])?
Answer: The mortality at 1.852 ppm was 0%.

Question: And the mortality at 1.852 ppm (Rhipicephalus sanguineus; [3])?
Answer: The mortality at 1.852 ppm was 0%.

Question: And the mortality at 5.556 ppm (Rhipicephalus sanguineus; [1])?
Answer: The mortality at 5.556 ppm was 0%.

Question: What about the mortality at 5.556 ppm (Rhipicephalus sanguineus; [2]) of the same compound?
Answer: Its mortality at 5.556 ppm is 20%.

Question: What about the mortality at 5.556 ppm (Rhipicephalus sanguineus; [3]) of the same compound?
Answer: Its mortality at 5.556 ppm is 60%.

Question: What about the mortality at 16.667 ppm (Rhipicephalus sanguineus; [1]) of the same compound?
Answer: The mortality at 16.667 ppm was 60%.

Question: And the mortality at 16.667 ppm (Rhipicephalus sanguineus; [2])?
Answer: The mortality at 16.667 ppm was 80%.

Question: And the mortality at 16.667 ppm (Rhipicephalus sanguineus; [3])?
Answer: The mortality at 16.667 ppm was 100%.

Question: And the mortality at 50 ppm (Rhipicephalus sanguineus; [1])?
Answer: The mortality at 50 ppm was 60%.

Question: And the mortality at 50 ppm (Rhipicephalus sanguineus; [2])?
Answer: The mortality at 50 ppm was 100%.

Question: What about the mortality at 50 ppm (Rhipicephalus sanguineus; [3]) of the same compound?
Answer: Its mortality at 50 ppm is 100%.

Question: What about the “EC50 (ppm) Fipronil” value (Rhipicephalus sanguineus; Table 5, ticks, amount of fipronil) of the same compound?
Answer: Its value is 3.77 ppm.

Question: And the “EC50 (ppm) Total amount of actives (ppm)” value (Rhipicephalus sanguineus; Table 5, ticks)?
Answer: Its value is 3.77 ppm.

Question: What about the “EC50 (ppm) Fiproml” value (Ctenocephalides felis; Table 2, fleas, amount of fipronil, alone or in the combination) of the same compound?
Answer: Its value is 13.83 ppm.

Question: And the “EC50 (ppm) Total amount of actives (ppm)” value (Ctenocephalides felis; Table 2, fleas)?
Answer: The value was 13.83 ppm.

Question: For `CN/C(=N\[N+](=O)[O-])NCC1CCOC1` (stereo not drawn) [D:F = 1:0, 2-methyl-l-nitro-3-[(tetrahydro-3-furanyl)methyl] guanidine], which “acaricidal activity against ticks (in words)” value (Rhipicephalus sanguineus) is on record?
Answer: The value was “not active”.

Question: And the “Mortality (%) 12 H” value (Rhipicephalus sanguineus; D 0.412 ppm + F 0.000 ppm, 12 H)?
Answer: Its value is 0%.

Question: And the “Mortality (%) 24 H” value (Rhipicephalus sanguineus; D 0.412 ppm + F 0.000 ppm, 24 H)?
Answer: The value was 0%.

Question: What about the “Mortality (%) 48 H” value (Rhipicephalus sanguineus; D 0.412 ppm + F 0.000 ppm, 48 H) of the same compound?
Answer: The value was 0%.

Question: And the “Mortality (%) 12 H” value (Rhipicephalus sanguineus; D 1.235 ppm + F 0.000 ppm, 12 H)?
Answer: The value was 0%.

Question: And the “Mortality (%) 24 H” value (Rhipicephalus sanguineus; D 1.235 ppm + F 0.000 ppm, 24 H)?
Answer: The value was 0%.

Question: What about the “Mortality (%) 48 H” value (Rhipicephalus sanguineus; D 1.235 ppm + F 0.000 ppm, 48 H) of the same compound?
Answer: The value was 0%.

Question: What about the “Mortality (%) 12 H” value (Rhipicephalus sanguineus; D 3.704 ppm + F 0.000 ppm, 12 H) of the same compound?
Answer: Its value is 0%.

Question: What about the “Mortality (%) 24 H” value (Rhipicephalus sanguineus; D 3.704 ppm + F 0.000 ppm, 24 H) of the same compound?
Answer: Its value is 0%.

Question: What about the “Mortality (%) 48 H” value (Rhipicephalus sanguineus; D 3.704 ppm + F 0.000 ppm, 48 H) of the same compound?
Answer: Its value is 0%.

Question: What about the “Mortality (%) 12 H” value (Rhipicephalus sanguineus; D 11.111 ppm + F 0.000 ppm, 12 H) of the same compound?
Answer: Its value is 0%.

Question: What about the “Mortality (%) 24 H” value (Rhipicephalus sanguineus; D 11.111 ppm + F 0.000 ppm, 24 H) of the same compound?
Answer: Its value is 0%.

Question: And the “Mortality (%) 48 H” value (Rhipicephalus sanguineus; D 11.111 ppm + F 0.000 ppm, 48 H)?
Answer: Its value is 0%.

Question: What about the “Mortality (%) 12 H” value (Rhipicephalus sanguineus; D 33.333 ppm + F 0.000 ppm, 12 H) of the same compound?
Answer: Its value is 0%.

Question: What about the “Mortality (%) 24 H” value (Rhipicephalus sanguineus; D 33.333 ppm + F 0.000 ppm, 24 H) of the same compound?
Answer: Its value is 0%.

Question: And the “Mortality (%) 48 H” value (Rhipicephalus sanguineus; D 33.333 ppm + F 0.000 ppm, 48 H)?
Answer: The value was 0%.

Question: And the “Mortality (%) 12 H” value (Rhipicephalus sanguineus; D 100.000 ppm + F 0.000 ppm, 12 H)?
Answer: Its value is 0%.

Question: What about the “Mortality (%) 24 H” value (Rhipicephalus sanguineus; D 100.000 ppm + F 0.000 ppm, 24 H) of the same compound?
Answer: The value was 0%.

Question: What about the “Mortality (%) 48 H” value (Rhipicephalus sanguineus; D 100.000 ppm + F 0.000 ppm, 48 H) of the same compound?
Answer: Its value is 0%.

Question: And the “EC50 (ppm) Dinotefuran” value (Rhipicephalus sanguineus; Table 5, ticks, amount of dinotefuran)?
Answer: Its value is >100 ppm.

Question: And the “EC50 (ppm) Total amount of actives (ppm)” value (Rhipicephalus sanguineus; Table 5, ticks)?
Answer: Its value is 100 ppm.

Question: What about the “activity against fleas (in words)” value (Ctenocephalides felis) of the same compound?
Answer: The value was “more potent than fipronil”.

Question: And the “Mortality (%) 6 H” value (Ctenocephalides felis; D 0.412 ppm + F 0.000 ppm)?
Answer: The value was 0%.

Question: And the “Mortality (%) 24 H” value (Ctenocephalides felis; D 0.412 ppm + F 0.000 ppm)?
Answer: The value was 10%.

Question: And the “Mortality (%) 48 H” value (Ctenocephalides felis; D 0.412 ppm + F 0.000 ppm)?
Answer: The value was 0%.

Question: What about the “Mortality (%) 6 H” value (Ctenocephalides felis; D 1.235 ppm + F 0.000 ppm) of the same compound?
Answer: The value was 0%.

Question: What about the “Mortality (%) 24 H” value (Ctenocephalides felis; D 1.235 ppm + F 0.000 ppm) of the same compound?
Answer: The value was 10%.

Question: What about the “Mortality (%) 48 H” value (Ctenocephalides felis; D 1.235 ppm + F 0.000 ppm) of the same compound?
Answer: Its value is 20%.

Question: And the “Mortality (%) 6 H” value (Ctenocephalides felis; D 3.704 ppm + F 0.000 ppm)?
Answer: Its value is 0%.

Question: What about the “Mortality (%) 24 H” value (Ctenocephalides felis; D 3.704 ppm + F 0.000 ppm) of the same compound?
Answer: Its value is 20%.

Question: And the “Mortality (%) 48 H” value (Ctenocephalides felis; D 3.704 ppm + F 0.000 ppm)?
Answer: The value was 50%.

Question: And the “Mortality (%) 6 H” value (Ctenocephalides felis; D 11.111 ppm + F 0.000 ppm)?
Answer: Its value is 10%.

Question: And the “Mortality (%) 24 H” value (Ctenocephalides felis; D 11.111 ppm + F 0.000 ppm)?
Answer: The value was 30%.

Question: What about the “Mortality (%) 48 H” value (Ctenocephalides felis; D 11.111 ppm + F 0.000 ppm) of the same compound?
Answer: The value was 60%.

Question: What about the “Mortality (%) 6 H” value (Ctenocephalides felis; D 33.333 ppm + F 0.000 ppm) of the same compound?
Answer: Its value is 0%.

Question: What about the “Mortality (%) 24 H” value (Ctenocephalides felis; D 33.333 ppm + F 0.000 ppm) of the same compound?
Answer: Its value is 10%.

Question: What about the “Mortality (%) 48 H” value (Ctenocephalides felis; D 33.333 ppm + F 0.000 ppm) of the same compound?
Answer: Its value is 80%.

Question: And the “Mortality (%) 6 H” value (Ctenocephalides felis; D 100.000 ppm + F 0.000 ppm)?
Answer: The value was 40%.

Question: What about the “Mortality (%) 24 H” value (Ctenocephalides felis; D 100.000 ppm + F 0.000 ppm) of the same compound?
Answer: Its value is 80%.

Question: And the “Mortality (%) 48 H” value (Ctenocephalides felis; D 100.000 ppm + F 0.000 ppm)?
Answer: Its value is 90%.

Question: What about the “EC50 (ppm) Dinotefuran” value (Ctenocephalides felis; Table 2, fleas, alone or in the combination) of the same compound?
Answer: Its value is 8.05 ppm.

Question: And the “EC50 (ppm) Total amount of actives (ppm)” value (Ctenocephalides felis; Table 2, fleas)?
Answer: The value was 8.05 ppm.

Question: And the “EC50 (ppm) Dinotefuran” value (Ctenocephalides felis; Table 3 (head EC50, text says EC90), fleas)?
Answer: The value was 50.87 ppm.
